Read-outs that look alike come from different tables or passages of the source.
Columns and labels:
[1] = cited from earlier work; for Assigned DILI category: Chen et al. 2016 or literature alignment, ref Chen et al. 2016
[2] = test system: HepaRG spheroids; test: Combined HCI (HCS) and cellular ATP 3D assay in HepaRG spheroids; settings: for HepaRG <25x Avg Cmax ATP / HepaRG <100x Avg Cmaxu ATP: ATP endpoint; for HepaRG <25x Avg Cmax ATP / HepaRG <25x Avg Cmax HCS / HepaRG <25x Avg Cmax All: cut-off <25x Avg Cmax; for HepaRG <100x Avg Cmaxu ATP / HepaRG <100x Avg Cmaxu HCS / HepaRG <100x Avg Cmaxu All: cut-off <100x Avg Cmaxu; for HepaRG <25x Avg Cmax HCS / HepaRG <100x Avg Cmaxu HCS: HCS endpoints; for HepaRG <25x Avg Cmax All: all endpoints (ATP and HCS); for HepaRG Cmax max All / HepaRG Cmax min All / HepaRG <10 uM All / HepaRG <100x Avg Cmaxu All: all endpoints; for HepaRG Cmax max All: Cmax max used; for HepaRG Cmax min All: Cmax min used; for HepaRG <10 uM All: cut-off <10 uM; for AC50 / minimal effective concentration: Homo sapiens; for HepaRG <25x Avg Cmax ATP / HepaRG <100x Avg Cmaxu ATP / HepaRG <25x Avg Cmax HCS / HepaRG <100x Avg Cmaxu HCS / HepaRG <25x Avg Cmax All / HepaRG Cmax max All / HepaRG Cmax min All / HepaRG <10 uM All / HepaRG <100x Avg Cmaxu All / AC50 / minimal effective concentration: HepaRG; for DILI prediction HepaRG spheroids (HCS-MEC): Microtissue model structural based (HCI), combined HCS and ATP, MEC < 25 × Cmax.tot cut-off
Procedure: 3D spheroid models consisting of either primary human hepatocytes with non-parenchymal cells (hLiMT’s) or HepaRG cells (HepaRG spheroids) were assessed for size (MS), oxidative stress (OS), MMP, mitochondrial mass (MM), GSH and cellular ATP content following drug exposure. Fluorescent images are acquired using the confocal mode of an ArrayScan™ XTI HCI reader (ThermoScientific) following which cellular ATP was measured using 3D CellTiter-Glo (Promega).

[3] = read-out: Human plasma Cmax; total plasma Cmax.tot, median of 9 literature references; cited from earlier work
[4] = test system: hLiMTs; test: Combined HCI (HCS) and cellular ATP 3D assay in hLiMTs; settings: for AC50 / minimal effective concentration: Homo sapiens; for DILI prediction hLiMTs (HCS-MEC): Microtissue model structural based (HCI), combined HCS and ATP, MEC < 25 × Cmax.tot cut-off; for hLiMTs <25x Avg Cmax ATP / hLiMTs <100x Avg Cmaxu ATP: ATP endpoint; for hLiMTs <25x Avg Cmax ATP / hLiMTs <25x Avg Cmax HCS / hLiMTs <25x Avg Cmax All: cut-off <25x Avg Cmax; for hLiMTs <100x Avg Cmaxu ATP / hLiMTs <100x Avg Cmaxu HCS / hLiMTs <100x Avg Cmaxu All: cut-off <100x Avg Cmaxu; for hLiMTs <25x Avg Cmax HCS / hLiMTs <100x Avg Cmaxu HCS: HCS endpoints; for hLiMTs <25x Avg Cmax All: all endpoints (ATP and HCS); for hLiMTs Cmax max All / hLiMTs Cmax min All / hLiMTs <10 uM All / hLiMTs <100x Avg Cmaxu All: all endpoints; for hLiMTs Cmax max All: Cmax max used; for hLiMTs Cmax min All: Cmax min used; for hLiMTs <10 uM All: cut-off <10 uM
[5] = test system: PHH; settings: cited from earlier work; for PHH/100xCmax, Proctor (2017) / PHH/100uM, Proctor (2017): 2D PHH, ATP, ref Proctor et al. 2017; for PHH/100xCmax, Proctor (2017): IC50 < 100 × Cmax.tot; for PHH/100uM, Proctor (2017): IC50 threshold 100 µM; for PHH ATP <100uM: In vitro Assay, ref Proctor 2017
[6] = cited from earlier work; for DILI severity category (Chen et al. [2016]): LTKB DILIrank category; for DILI severity category (Chen et al. [2016]) / DILI severity category (Chen 2016): ref Chen et al. 2016; for DILI severity category (Chen 2016): human DILI classification, LTKB DILIrank
[7] = test system: hLiMTs; settings: cited from earlier work; for hLiMTs ATP <100uM: In vitro Assay, ref Proctor 2017; for hLiMTs/100xCmax, Proctor (2017) / hLiMTs/100uM, Proctor (2017): ATP, ref Proctor et al. 2017; for hLiMTs/100xCmax, Proctor (2017): IC50 < 100 × Cmax.tot; for hLiMTs/100uM, Proctor (2017): IC50 threshold 100 µM
[8] = Plasma free fraction (fu) and unbound Cmax (Cmax,u); format: in vitro ADME, human; settings: unbound plasma Cmax
Procedure: The prediction of DILI severity was evaluated further using the 3D combined HCI assays using plasma-free fraction. The majority of fu values were obtained from literature, when unavailable in-house prediction was utilised. Unbound plasma Cmax concentrations (Cmax,u) were derived by multiplying total plasma Cmax with the corresponding free fraction (fu) for each compound.

[9] = plasma free fraction; cited from earlier work
[10] = test system: HepG2 C3A spheroid, BSEP, Glu/Gal in HepG2 cells, bioactivation; settings: cited from earlier work; for Bayesian Machine Learning DILI prediction, Williams (2019): Bayesian modeling, ref Williams et al. 2019; for Bayesian Machine Learning: In vitro Assay, ref Williams 2019
[11] = test system: primary human hepatocytes, NIH3T3 fibroblasts, BSEP, CYP3A4; settings: cited from earlier work
[12] = test system: THLE or HepG2 cells, isolated mitochondria, BSEP; settings: cited from earlier work; for Partition Hybrid HRM Score / Ro2 Hybrid HRM Score: In vitro Assay, ref Aleo 2019; for Partition Hybrid HRM Score ≥4, Aleo (2019) / Partition Hybrid HRM Score ≥8, Aleo (2019) / Rule of Two hybrid HRM Score ≥3, Aleo (2019) / Rule of Two hybrid HRM Score ≥8, Aleo (2019): Modeled in vitro assays (cytotoxicity, mitochondrial dysfunction, BSEP), ref Aleo et al. 2019
[13] = test system: human hepatocytes; settings: cited from earlier work
[14] = human DILI severity, ref Chen et al.
[15] = In vitro Assay, ref Schadt 2015

CCN(CC)C(=O)/C(C#N)=C/c1cc(O)c(O)c([N+](=O)[O-])c1 [entacapone]
Assigned DILI category [1]: 2
In vivo DILI ([1]; ref Aleo 2019): +VE
In vivo DILI ([1]; ref Proctor 2017): -VE
In vivo DILI ([1]; ref Schadt 2015): -VE
In vivo DILI ([1]; ref Williams 2019): -VE
HepaRG <25x Avg Cmax ATP [2]: +ve
HepaRG <100x Avg Cmaxu ATP [2]: -ve
HepaRG <25x Avg Cmax HCS [2]: +ve
HepaRG <100x Avg Cmaxu HCS [2]: -ve
HepaRG <25x Avg Cmax All [2]: +ve
HepaRG Cmax max All [2]: +ve
HepaRG Cmax min All [2]: +ve
HepaRG <10 uM All [2]: -ve
HepaRG <100x Avg Cmaxu All [2]: -ve
AC50 ([2]; read-out: ATP endpoint AC50): 115 µM
minimal effective concentration ([2]; read-out: ATP endpoint MEC): 45.5 µM
AC50 ([2]; read-out: HCS endpoint AC50): 129 µM
minimal effective concentration ([2]; read-out: HCS endpoint MEC): 45.4 µM
DILI prediction HepaRG spheroids (HCS-MEC) [2]: +VE (MEC < 25 × Cmax.tot cut-off)
Cmax [3]: 3590 nM
AC50 ([4]; read-out: ATP endpoint AC50): 150 µM
minimal effective concentration ([4]; read-out: ATP endpoint MEC): 125 µM
AC50 ([4]; read-out: HCS endpoint AC50): 139 µM
minimal effective concentration ([4]; read-out: HCS endpoint MEC): 88.8 µM
DILI prediction hLiMTs (HCS-MEC) [4]: +VE (MEC < 25 × Cmax.tot cut-off)
hLiMTs <25x Avg Cmax ATP [4]: -ve
hLiMTs <100x Avg Cmaxu ATP [4]: -ve
hLiMTs <25x Avg Cmax HCS [4]: +ve
hLiMTs <100x Avg Cmaxu HCS [4]: -ve
hLiMTs <25x Avg Cmax All [4]: +ve
hLiMTs Cmax max All [4]: +ve
hLiMTs Cmax min All [4]: -ve
hLiMTs <10 uM All [4]: -ve
hLiMTs <100x Avg Cmaxu All [4]: -ve
PHH/100xCmax, Proctor (2017) [5]: +VE (IC50 < 100 × Cmax.tot)
PHH/100uM, Proctor (2017) [5]: -VE
PHH ATP <100uM [5]: +VE (IC50 threshold of 100 µM)
DILI severity category (Chen et al. [2016]) [6]: Less
DILI severity category (Chen 2016) [6]: Less
DILI severity category [6, 14]: Less
DILI +VE (5-8), DILI -VE (-4) ([6]; ref Chen 2016): +VE
DILI severity category ([6]; ref Chen 2016): vLess-DILI-Concern
hLiMTs ATP <100uM [7]: -VE
hLiMTs/100xCmax, Proctor (2017) [7]: +VE (IC50 < 100 × Cmax.tot)
hLiMTs/100uM, Proctor (2017) [7]: -VE
Human plasma Cmax,u [8]: 72 nM
fu [9]: 0.020
Bayesian Machine Learning DILI prediction, Williams (2019) [10]: -VE
Bayesian Machine Learning [10]: -VE
DILI in vitro assay prediction, Schadt (2015) ([11]; BSEP & Metabolism based, ref Schadt et al. 2015): -VE
Cellular toxicity (3T3 cells) [11, 15]: -VE
Combined Assay [11, 15]: -VE
GSH adduct HML [11, 15]: -VE
Hepatocyte cellular toxicity [11, 15]: -VE
MitoTox 3T3 [11, 15]: -VE
TDI CYP3A4 [11, 15]: -VE
hBSEP inhibition [11, 15]: -VE
Partition Hybrid HRM Score [12]: +VE
Ro2 Hybrid HRM Score [12]: +VE
Partition Hybrid HRM Score ≥4, Aleo (2019) [12]: +VE (Partition Hybrid HRM Score ≥4)
Partition Hybrid HRM Score ≥8, Aleo (2019) [12]: +VE (Partition Hybrid HRM Score ≥8)
Rule of Two hybrid HRM Score ≥3, Aleo (2019) [12]: +VE (Rule of Two hybrid HRM Score ≥3)
Rule of Two hybrid HRM Score ≥8, Aleo (2019) [12]: -VE

CNC1(C)C2CCC(C2)C1(C)C (stereo not drawn) [mecamylamine]
Assigned DILI category [1]: 1
In vivo DILI ([1]; […]): -VE
In vivo DILI ([1]; ref Proctor 2017): -VE
In vivo DILI ([1]; ref Williams 2019): -VE
HepaRG <25x Avg Cmax ATP [2]: -ve
HepaRG <100x Avg Cmaxu ATP [2]: -ve
HepaRG <25x Avg Cmax HCS [2]: -ve
HepaRG <100x Avg Cmaxu HCS [2]: -ve
HepaRG <25x Avg Cmax All [2]: -ve
HepaRG Cmax max All [2]: -ve
HepaRG Cmax min All [2]: -ve
HepaRG <10 uM All [2]: -ve
HepaRG <100x Avg Cmaxu All [2]: -ve
minimal effective concentration ([2]; read-out: HCS endpoint MEC): 12.2 µM
DILI prediction HepaRG spheroids (HCS-MEC) [2]: -VE
Cmax [3]: 142 nM
DILI prediction hLiMTs (HCS-MEC) [4]: -VE
hLiMTs <25x Avg Cmax ATP [4]: -ve
hLiMTs <100x Avg Cmaxu ATP [4]: -ve
hLiMTs <25x Avg Cmax HCS [4]: -ve
hLiMTs <100x Avg Cmaxu HCS [4]: -ve
hLiMTs <25x Avg Cmax All [4]: -ve
hLiMTs Cmax max All [4]: -ve
hLiMTs Cmax min All [4]: -ve
hLiMTs <10 uM All [4]: -ve
hLiMTs <100x Avg Cmaxu All [4]: -ve
PHH/100xCmax, Proctor (2017) [5]: -VE
PHH/100uM, Proctor (2017) [5]: -VE
PHH ATP <100uM [5]: -VE
DILI severity category (Chen et al. [2016]) [6]: No
DILI severity category (Chen 2016) [6]: No
DILI severity category [6, 14]: No
DILI +VE (5-8), DILI -VE (-4) ([6]; ref Chen 2016): -VE
DILI severity category ([6]; ref Chen 2016): vNo-DILI-Concern
hLiMTs ATP <100uM [7]: -VE
hLiMTs/100xCmax, Proctor (2017) [7]: -VE
hLiMTs/100uM, Proctor (2017) [7]: -VE
Human plasma Cmax,u [8]: 85 nM
fu [9]: 0.600
Bayesian Machine Learning DILI prediction, Williams (2019) [10]: -VE
Bayesian Machine Learning [10]: -VE

Cc1ccc(N(CC2=NCCN2)c2cccc(O)c2)cc1 [phentolamine]
HepaRG <25x Avg Cmax ATP [2]: -ve
HepaRG <100x Avg Cmaxu ATP [2]: -ve
HepaRG <25x Avg Cmax HCS [2]: -ve
HepaRG <100x Avg Cmaxu HCS [2]: -ve
HepaRG <25x Avg Cmax All [2]: -ve
HepaRG Cmax max All [2]: -ve
HepaRG Cmax min All [2]: -ve
HepaRG <10 uM All [2]: -ve
HepaRG <100x Avg Cmaxu All [2]: -ve
AC50 ([2]; read-out: ATP endpoint AC50): 35.2 µM
minimal effective concentration ([2]; read-out: ATP endpoint MEC): 29.3 µM
AC50 ([2]; read-out: HCS endpoint AC50): 63 µM
minimal effective concentration ([2]; read-out: HCS endpoint MEC): 18.1 µM
DILI prediction HepaRG spheroids (HCS-MEC) [2]: -VE
Cmax [3]: 75 nM
minimal effective concentration ([4]; read-out: HCS endpoint MEC): 87.4 µM
DILI prediction hLiMTs (HCS-MEC) [4]: -VE
hLiMTs <25x Avg Cmax ATP [4]: -ve
hLiMTs <100x Avg Cmaxu ATP [4]: -ve
hLiMTs <25x Avg Cmax HCS [4]: -ve
hLiMTs <100x Avg Cmaxu HCS [4]: -ve
hLiMTs <25x Avg Cmax All [4]: -ve
hLiMTs Cmax max All [4]: -ve
hLiMTs Cmax min All [4]: -ve
hLiMTs <10 uM All [4]: -ve
hLiMTs <100x Avg Cmaxu All [4]: -ve
Human plasma Cmax,u [8]: 34 nM
fu [9]: 0.460
Bayesian Machine Learning DILI prediction, Williams (2019) [10]: -VE
Structural based (HCI) ([13]; In vitro Assay, ref Xu 2008): -VE
DILI in vitro assay prediction, Xu (2008) ([13]; Structural based (HCI), human hepatocytes, ref Xu et al. 2008): -VE
Partition Hybrid HRM Score [12]: -VE
Ro2 Hybrid HRM Score [12]: -VE
Partition Hybrid HRM Score ≥4, Aleo (2019) [12]: -VE
Partition Hybrid HRM Score ≥8, Aleo (2019) [12]: -VE
Rule of Two hybrid HRM Score ≥3, Aleo (2019) [12]: -VE
Rule of Two hybrid HRM Score ≥8, Aleo (2019) [12]: -VE

— PMC7395068, “The evolution of strategies to minimise the risk of human drug-induced liver injury (DILI) in drug discovery and development” (Archives of Toxicology, 2020)
